Laboratory results reported in ChEMBL document CHEMBL1156504, “Structural characterization of the human androgen receptor ligand-binding domain complexed with EM5744, a rationally designed steroidal ligand bearing a bulky chain directed toward helix 12” (J Biol Chem, 2007).
Active and inactive are the calls of the source. The rule behind the calls is not given here.

Legend:
[1] = species on record: Mus musculus; test: Induction of proliferation of mouse Shionogi cells at 10 pM; assay type: functional
[2] = species on record: Mus musculus; test: Inhibition of 5-alpha-dihydrotestosterone-stimulated growth of mouse Shionogi cells at 1 uM; assay type: functional

Compound | Activity [1] | Activity [2]
C[C@]12CCC(=O)C[C@@H]1CC[C@@H]1[C@@H]2CC[C@]2(CCOCc3cc(F)cc(F)c3)[C@@H](O)CC[C@@H]12 | Active | inactive
C[C@]12CCC(=O)C[C@@H]1CC[C@@H]1[C@@H]2CC[C@]2(C)[C@@H](O)CC[C@@H]12 | Active | 
